Data taken from patent publication USRE38330E1, “Preventing and reversing advanced glycosylation endproducts” (Alteon Inc., priority 1995, dated 2003).
pIC50: −log10 of the molar value. Like-named read-outs stand apart in the source and are kept apart here.

What was measured:
[1] = test system: aortic wall protein cross-linking in diabetic rats; details: cited from earlier work
[2] = test system: immunoglobulin trapping in the kidney; details: in vivo; cited from earlier work
red blood cells = details: in vivo; cited from earlier work
[3] = biological target: T1, cross-linking of glycated bovine serum albumin (AGE-BSA) to the rat tail tendon collagen (Bos taurus, UniProt P02769); assay: Inhibition of cross-linking of glycated BSA (AGE-BSA) to rat tail tendon collagen coated 96-well plate (ELISA); format: biochemical
T1 construct: glycated bovine serum albumin (AGE-BSA); from tissue; host or cells: collagen from rat tail tendon; BSA from bovine serum, glycated in house
T1 sequence (P02769 25-607): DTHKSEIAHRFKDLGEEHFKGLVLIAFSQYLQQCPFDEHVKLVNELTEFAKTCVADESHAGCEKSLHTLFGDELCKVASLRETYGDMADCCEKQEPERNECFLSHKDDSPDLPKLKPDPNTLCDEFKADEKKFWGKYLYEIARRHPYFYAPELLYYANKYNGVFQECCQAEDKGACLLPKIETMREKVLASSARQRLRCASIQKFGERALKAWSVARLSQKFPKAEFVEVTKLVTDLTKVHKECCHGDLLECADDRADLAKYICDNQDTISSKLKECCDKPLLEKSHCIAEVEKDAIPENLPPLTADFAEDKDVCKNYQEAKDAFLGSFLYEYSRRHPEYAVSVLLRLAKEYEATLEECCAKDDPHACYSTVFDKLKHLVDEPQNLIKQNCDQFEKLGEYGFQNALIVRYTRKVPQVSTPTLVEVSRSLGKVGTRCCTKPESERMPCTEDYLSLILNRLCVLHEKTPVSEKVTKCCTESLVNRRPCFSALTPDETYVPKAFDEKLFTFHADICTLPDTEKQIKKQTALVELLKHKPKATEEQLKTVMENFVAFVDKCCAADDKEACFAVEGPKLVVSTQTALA
Experimental: The cross-linked AGE-BSA to the tail tendon coated plate was then quantitated by the polyclonal antibody raised against AGE-RNase.
The % inhibition of each test compound was calculated as follows.

[4] = biological target: T2, AGE-BSA previously crosslinked to the collagen (Bos taurus, UniProt P02769); assay: Sandwich enzyme immunoassay for breaking of AGE moieties from AGE-BSA crosslinked to collagen (AGE breaker assay); format: biochemical, bovine; rat; details: for IC50: AGE breaking, 16 hours 37° C.
T2 construct: Type V BSA (bovine serum albumin); purchased Calbiochem (BSA Type V); Collaborative Biomedical Products (Biocoat rat tail collagen type I plates)
T2 sequence (P02769 25-607): as above
T2 sequence (P02454 152-1207 partner limits assumed): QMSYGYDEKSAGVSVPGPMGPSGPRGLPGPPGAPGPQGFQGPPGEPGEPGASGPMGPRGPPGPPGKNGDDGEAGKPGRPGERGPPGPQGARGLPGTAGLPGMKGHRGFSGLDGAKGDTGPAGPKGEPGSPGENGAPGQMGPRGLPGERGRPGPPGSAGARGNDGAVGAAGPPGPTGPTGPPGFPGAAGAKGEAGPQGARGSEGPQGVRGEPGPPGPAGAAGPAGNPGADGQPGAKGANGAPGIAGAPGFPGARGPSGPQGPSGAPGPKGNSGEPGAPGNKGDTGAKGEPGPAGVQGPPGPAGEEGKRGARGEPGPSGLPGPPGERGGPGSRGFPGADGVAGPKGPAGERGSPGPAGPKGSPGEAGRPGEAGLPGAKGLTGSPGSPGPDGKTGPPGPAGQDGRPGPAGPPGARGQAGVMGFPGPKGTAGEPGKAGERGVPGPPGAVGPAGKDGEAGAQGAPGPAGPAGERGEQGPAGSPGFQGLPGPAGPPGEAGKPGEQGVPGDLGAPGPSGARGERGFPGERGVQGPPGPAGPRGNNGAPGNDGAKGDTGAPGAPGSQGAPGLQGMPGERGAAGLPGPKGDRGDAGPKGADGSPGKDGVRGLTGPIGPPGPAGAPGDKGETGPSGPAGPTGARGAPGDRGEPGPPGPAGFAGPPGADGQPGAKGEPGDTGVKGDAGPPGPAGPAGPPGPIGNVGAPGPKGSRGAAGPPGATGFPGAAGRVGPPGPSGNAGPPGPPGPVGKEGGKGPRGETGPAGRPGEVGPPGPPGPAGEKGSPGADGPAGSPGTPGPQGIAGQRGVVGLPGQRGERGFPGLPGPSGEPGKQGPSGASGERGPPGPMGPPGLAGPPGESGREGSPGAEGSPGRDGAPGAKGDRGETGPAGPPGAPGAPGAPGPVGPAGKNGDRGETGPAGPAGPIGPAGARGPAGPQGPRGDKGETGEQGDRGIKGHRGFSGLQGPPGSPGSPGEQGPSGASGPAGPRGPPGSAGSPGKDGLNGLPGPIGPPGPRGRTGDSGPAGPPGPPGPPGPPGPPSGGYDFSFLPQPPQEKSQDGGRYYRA
T2 sequence (P02466 86-1125 partner limits assumed): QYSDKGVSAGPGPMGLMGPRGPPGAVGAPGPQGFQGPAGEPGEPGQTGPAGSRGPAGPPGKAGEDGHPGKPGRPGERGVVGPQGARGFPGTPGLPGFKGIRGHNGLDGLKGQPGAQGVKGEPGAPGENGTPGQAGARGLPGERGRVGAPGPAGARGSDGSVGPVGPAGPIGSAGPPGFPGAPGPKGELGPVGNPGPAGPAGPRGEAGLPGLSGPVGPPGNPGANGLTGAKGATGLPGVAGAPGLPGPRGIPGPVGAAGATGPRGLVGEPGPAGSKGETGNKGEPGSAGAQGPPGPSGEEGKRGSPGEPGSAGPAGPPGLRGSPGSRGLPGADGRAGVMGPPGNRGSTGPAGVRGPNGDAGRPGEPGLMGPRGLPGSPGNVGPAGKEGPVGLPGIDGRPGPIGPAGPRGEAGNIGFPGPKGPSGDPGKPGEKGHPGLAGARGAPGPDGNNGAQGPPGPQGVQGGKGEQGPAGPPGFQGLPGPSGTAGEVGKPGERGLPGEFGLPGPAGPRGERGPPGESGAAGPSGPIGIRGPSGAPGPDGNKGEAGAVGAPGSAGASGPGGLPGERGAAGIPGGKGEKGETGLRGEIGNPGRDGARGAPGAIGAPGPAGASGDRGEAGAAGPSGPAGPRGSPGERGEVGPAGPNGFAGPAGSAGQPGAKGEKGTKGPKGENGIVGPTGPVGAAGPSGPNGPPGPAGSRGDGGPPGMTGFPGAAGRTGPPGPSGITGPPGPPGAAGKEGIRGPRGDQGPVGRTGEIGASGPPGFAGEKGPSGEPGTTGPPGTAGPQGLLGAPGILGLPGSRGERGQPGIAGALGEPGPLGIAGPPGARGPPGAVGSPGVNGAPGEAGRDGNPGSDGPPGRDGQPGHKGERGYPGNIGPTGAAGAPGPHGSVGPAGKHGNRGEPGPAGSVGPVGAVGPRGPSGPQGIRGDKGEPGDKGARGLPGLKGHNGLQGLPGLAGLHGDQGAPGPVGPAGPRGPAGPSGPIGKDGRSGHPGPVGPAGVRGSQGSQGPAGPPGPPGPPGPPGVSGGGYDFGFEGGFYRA
Experimental: The present invention also involves a novel sandwich enzyme immunoassay used to ascertain the ability of test compounds to “break” or reverse already formed advanced glycosylation endproducts by detecting the breaking of AGE (Advanced glycosylation endproduct) moieties from AGE-crosslinked protein. This assay comprises:
a) incubation of AGE-modified bovine serum albumin (AGE-BSA) on collagen-coated wells of microtiter plates for a period of 2-6 hours at a temperature of 37° C.;
b) washing of the wells with PBS-Tween;
c) application of the test compounds to the washed wells of step b;
d) incubation of the test compounds applied to the washed wells for an additional 12-24 hours at a temperature of about 37° C.; and
e) detection of the AGE-breaking using an antibody raised against AGE-ribonuclease or cross-link breaking with an antibody against BSA.
In order to ascertain the ability of the compounds of the instant invention to “break” or reverse already formed advanced glycosylation endproducts, a novel sandwich enzyme immunoassay was developed which detects breaking of AGE (Advanced glycosylation endproduct) moieties from AGE-crosslinked protein. The assay utilizes collagen-coated 96 will microtiter plates that are obtained commercially. AGE-modified protein (AGE-BSA) is incubated on the collagen-coated wells for four hours, is washed off the wells with PBS-Tween and the test compounds are added. Following an incubation period of 16 hours (37° C.) AGE-breaking is detected using an antibody raised against AGE-ribonuclease or with an antibody against BSA. […] Details of the assay are as follows:
1. AGE-BSA stock solutions were prepared as follows. Sodium phosphate buffer (0.4M) was prepared by dissolving 6 grams of monobasic sodium phosphate in 100 ml of distilled water, 7 grams of dibasic sodium phosphate (0.4M) in 100 ml of distilled water and adjusting the pH of the dibasic solution to 7.4 with the monobasic solution. Sodium azide (0.02 grams) was added per 100 ml volume to inhibit bacterial growth. The BSA solution was prepared as follows: 400 mg of Type V BSA (bovine serum albumin) was added for each ml of sodium phosphate buffer (above). A 400 mM glucose solution was prepared by dissolving […] of dextrose in 100 ml of sodium phosphate buffer (above). The BSA and glucose solutions were mixed 1:1 and incubated at 37° C. for 12 weeks. The pH of the incubation mixture was monitored weekly and adjusted to pH 7.4 if necessary. After 12 weeks, the AGE-BSA solution was dialyzed against PBS for 48 hours with four buffer changes, each at a 1:500 ratio of solution to dialysis buffer. Protein concentration was determined by the micro-Lowry method. The AGE-BSA stock solution was aliquoted and stored at −20° C.
2. Working solutions for crosslinking and breaking studies were prepared as follows. Test compounds were dissolved in PBS and the pH was adjusted to pH 7.4 if necessary. AGE-BSA stock solution was diluted in PBS to measure maximum crosslinking and in the inhibitor solution for testing inhibitory activity of compounds. The concentration of AGE-BSA necessary to achieve the optimum sensitivity was determined by initial titration of each lot of AGE-BSA.
3. Wash buffer (“PBS-Tween”) was prepared as follows. PBS was prepared by dissolving the following salts in one liter of distilled water: NaCl, 8 grams; KCl, 0.2 gram, KH2PO4. […] Tween-20 was added to a final concentration of 0.05% (vol/vol).
4. Substrates for detection of secondary antibody binding were prepared by diluting the HRP substrate buffer 1:10 in distilled water and mixing with ABTS chromogen 1:50 just prior to use.
1. Biocoat plates were blocked With 300 μl of “Superbloc”. Plates were blocked for one hour at room temperature and were washed with PBS-Tween three times with the Dynatech platewasher before addition of test reagents.
2. Each experiment was set up in the following manner.

[5] = read-out: % Inhibition Anti-AGE (at mM)
[6] = read-out: % Inhibition Anti-BSA (at mM)
[7] = detection with anti-AGE-RNase antibody, read-out: IC50 (mM) Anti-AGE
[8] = detection with anti-BSA antibody, read-out: IC50 (mM) Anti-BSA

Compound: COC(=O)C[n+]1csc(CCO)c1C.[Br-] [3-(2-methoxy-2-oxoethyl)-4-methyl-5-(2-hydroxyethyl)-thiazolium bromide]
- melting point: 137 to 138 °C

Compound: N=C(N)NN [aminoguanidine]
- aortic wall protein cross-linking [1]: diminishes aortic wall protein cross-linking
- immunoglobulin trapping in the kidney [2]: reduction of immunoglobulin trapping in the kidney
- diabetes-induced changes in the deformability of red blood cells (red blood cells): has been shown to prevent it in vivo

Compound: COC(=O)C[n+]1ccsc1 [3-(2-Methoxy-2-oxoethyl)thiazolium bromide]
- pIC50 [3]: 3.86
- inhibition at 30000 µM [4, 5]: 38%
- inhibition at 30000 µM [4, 6]: 41%

Compound: NC(=O)C[n+]1ccsc1N.[Br-]
- melting point: 209 to 210 °C

Compound: O=C(C[n+]1csc2ccccc21)c1ccccc1.[Br-]
- melting point: 240 to 241 °C (dec.)

Compound: Cc1c(CCO)sc[n+]1CC(=O)c1ccccc1 [3-(2-phenyl-2-oxoethyl)-4-methyl-5-(2-hydroxyethyl)-thiazolium bromide]
- IC50 [4, 7]: 14.3 mM

Compound: Cc1sc[n+](CC(=O)c2ccc(Br)cc2)c1C [3-(2-[4^1-bromophenyl]-2-oxoethyl)-4,5-dimethylthiazolium bromide]
- pIC50 [3]: 2.53

Compound: Cc1sc[n+](CC(=O)c2ccccc2)c1C [3-(2-phenyl-2-oxoethyl)-4,5-dimethylthiazolium bromide]
- pIC50 [3]: 1.31
- inhibition at 30000 µM [4, 5]: 56%

Compound: COC(=O)C[n+]1csc(C)c1C [3-(2-methoxy-2-oxoethyl)-4,5-dimethylthiazolium bromide]
- pIC50 [3]: 3.86
- inhibition at 30000 µM [4, 5]: 50%
- inhibition at 30000 µM [4, 6]: 30%

Compound: Nc1sc2ccccc2[n+]1N [2,3-diamino-benzothiazolium mesitylenesulfonate]
- pIC50 [3]: 4.13
- inhibition at 30000 µM ([4]; at 30 mM, detection with anti-AGE-RNase antibody, read-out: % Inhibition Anti-AGE (at mM)): 75%
- inhibition at 30000 µM ([4]; at 30 mM, detection with anti-BSA antibody, read-out: % Inhibition Anti-BSA (at mM)): 35%
- melting point: 212 to 214 °C (dec.)

Compound: Cc1c(CCO)sc[n+]1CC(=O)c1ccc(Br)cc1 [3-(2-[4^1-bromophenyl]-2-oxoethyl)-4-methyl-5-(2-hydroxyethyl)thiazolium bromide]
- pIC50 [3]: 2.35

Compound: NC(=O)C[n+]1ccsc1.[Br-] [3-(2-amino-2-oxoethyl)thiazolium bromide, 3-(2-amino-2-oxoethyl)-thiazolium bromide]
- pIC50 [3]: 3.65
- melting point: 205 to 206 °C

Compound: Cc1csc[n+]1CC(N)=O [3-(2-amino-2-oxoethyl)-4-methyl-thiazolium bromide]
- pIC50 [3]: 3.94
- IC50 [4, 7]: 4.7 mM
- IC50 [4, 8]: 38.6 mM

Compound: COC(=O)C[n+]1cscc1C.[Br-] [3-(2-methoxy-2-oxoethyl)-4-methylthiazolium bromide]
- inhibition at 30000 µM [4, 5]: 54%
- inhibition at 30000 µM [4, 6]: 41%
- melting point: 149 to 151 °C (dec.)

Compound: O=C(O)C[n+]1csc2ccccc21.[Br-] [3-(carboxymethyl)benzothiazolium bromide, 3-(carboxymethyl)-benzothiazolium bromide]
- inhibition at 30000 µM [4, 5]: 63.7%
- inhibition at 30000 µM [4, 6]: 17.9%
- melting point: 250 °C (dec.)

Compound: Cc1c[n+](CC(=O)c2ccccc2)cs1 [3-(2-phenyl-2-oxoethyl)-5-methyl-thiazolium bromide]
- pIC50 [3]: 1.86

Compound: COC(=O)C[n+]1csc2ccccc21 [3-(2-methoxy-2-oxoethyl)-benzothiazolium bromide]
- IC50 [4, 7]: 1.2 mM
- IC50 [4, 8]: 25.9 mM
